This note sets out measurements from patent US20240150339A1, “Compounds and Their Use as PDE4 Activators” (Mironid Limited, priority 2021, published 2024).

In one assay the target is T1, PDE4C3 (Homo sapiens, UniProt Q08493).
T1 construct: Using Full-Length Human PDE4 Isoforms: Long Forms PDE4D5, PDE4C3, PDE4B1 and Short Form PDE4B2; made in house; host or cells: HEK 293 transfected with pcDNA3.1 or pDEST PDE4 expression vector; cytosol fraction of the lysate by analogy to PDE4D5
As to the kind of experiment: PDE assay, activation of full-length human PDE4C3 long form ([3H]cAMP radio-assay). The conditions noted are these: 30 μM test compound; mean % increase in counts over basal activity. The assay is classed as biochemical. An excerpt:
(§1) Experiment 1: Measurement of Modulation of Enzyme Activity by PDE4 Long Form Activators of the Present Invention Using Full-Length Human PDE4 Isoforms: Long Forms PDE4D5, PDE4C3, PDE4B1 and Short Form PDE4B2
(§2) (Marchmont, R. J. and Houslay, M. D. Biochem. J. 187: 381-92, 1980)
For transient transfection of exogenous PDE4 long isoforms, HEK 293 cells were transfected with pcDNA3.1 or pDEST™ PDE4 expression vectors using Lipofectamine LTX/Plus reagent (Invitrogen) as outlined by the manufacturer. […]
(§3) HEK-PDE4D5 cells were seeded out in 100 mm plates and incubated at 37° C. in an atmosphere of 5% CO2, 95% air. Cell lysates were prepared using KHEM buffer [50 mM KCl, 10 mM EGTA, 50 mM HEPES (pH 7.2), 1.92 mM MgCl2].
(§4) To prepare the cell lysates, the 100 mm plates containing the cells were placed on ice and washed with ice-cold PBS (phosphate buffered saline, pH 7.4). KHEM buffer (500 μl) was added to the cells. Cells were then scraped off the plate and triturated using a needle (BD Microlance™ 0.8, 40 mm). The lysed cells were then centrifuged at 2000 rpm for 10 minutes to remove cell debris and the supernatant (cell lysate containing recombinant PDE4D5) was transferred to a fresh tube and kept on ice.
(§5) The cell lysate containing recombinant PDE4D5 was transferred into a centrifuge tube and placed into an ultracentrifuge (BECKMAN COULTER) and spun at high speed (100,000 g) for 30 minutes at 4° C. The cytosol fraction was then collected and its protein amount determined using a BCA protein assay.
(§6) PDE assays were performed in thin walled V-bottomed 96-well plates. The assays were performed at a final concentration of 10 mM Tris/5 mM MgCl2 μlus PDE4D5 cell lysate cytosol fraction, containing over-expressed PDE4D5, with and without test compound. The lysate/compound mix were incubated together for 15 min at room temperature on an orbital shaker prior to addition of [^3H] cAMP (final concentration 1 μM [^3H] cAMP; Perkin Elmer) to a final volume of 50 μl per reaction. The reactions were then incubated for 10 minutes at 30° C., terminated by heating for 2 min at 95° C. and allowed to cool. Snake venom (12.5 μl of 1 mg/ml; Crotalus atrox, Sigma) was then added and the plates were agitated and incubated for a further 15 minutes at 30° C. Dowex ion exchange resin (Sigma, chloride form, 200-400 mesh; 200 μl; prepared as a 1:1 Dowex: water stock, thoroughly re-suspended and diluted 2:1 with ethanol) was then added to each well and the plates incubated for 15 min at room temperature on an orbital shaker ensuring sufficient agitation for resin suspension (550 RPM). The reaction mixture was then transferred to a 96 well filter plate (Millipore; […] pore size) and filtered into a receiving 96-well plate to remove the dowex suspension. 30 μL of the filtered solution was then transferred to the wells of an Opti-plate (Perkin Elmer) 96 well assay plate and 120 μl of Microscint 40 scintillation fluid was added. The plate was then placed on an orbital shaker for 10 min at high speed (900 RPM) to mix the sample with scintillation fluid prior to quantitation using a plate based scintillation counter (Top-Count).
(§7) The % increase in counts in the presence of test compound at a particular concentration indicates the % increase in enzyme activity at that concentration.

Another assay deals with m-IMCD3 cells. As to the kind of experiment: Inhibition of PGE2-stimulated in vitro cyst formation in 3D culture of m-IMCD3 cells. The assay is classed as cell-based, mouse. Particulars: Mus musculus, mIMCD3, 144 h; 10 μM test compound; mean cyst area (%) compared to 100% for (DMSO + PGE2) and 0% for DMSO control; 100 nM PGE2; 6 days; read-out: % Cyst area after incubation with 10 μM test compound. The gist of the method: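 Mouse m-IMCD3 cells grown in 3D collagen I/Matrigel gels. From 18-24 h after plating, compound (0.1% DMSO) plus 100 nM PGE2 were added and replenished at 2-3 days. After 6 days, imaging gave mean cyst area, scaled to 100% for DMSO+PGE2 and 0% for DMSO alone.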

For the next assay, the target named is T2, PDE4D5 (Homo sapiens, UniProt Q08499).
T2 construct: Using Full-Length Human PDE4 Isoforms: Long Forms PDE4D5, PDE4C3, PDE4B1 and Short Form PDE4B2; made in house; cytosol fraction of the cell lysate, not purified
T2 sequence (Q08499 1-745 isoform Q08499-6): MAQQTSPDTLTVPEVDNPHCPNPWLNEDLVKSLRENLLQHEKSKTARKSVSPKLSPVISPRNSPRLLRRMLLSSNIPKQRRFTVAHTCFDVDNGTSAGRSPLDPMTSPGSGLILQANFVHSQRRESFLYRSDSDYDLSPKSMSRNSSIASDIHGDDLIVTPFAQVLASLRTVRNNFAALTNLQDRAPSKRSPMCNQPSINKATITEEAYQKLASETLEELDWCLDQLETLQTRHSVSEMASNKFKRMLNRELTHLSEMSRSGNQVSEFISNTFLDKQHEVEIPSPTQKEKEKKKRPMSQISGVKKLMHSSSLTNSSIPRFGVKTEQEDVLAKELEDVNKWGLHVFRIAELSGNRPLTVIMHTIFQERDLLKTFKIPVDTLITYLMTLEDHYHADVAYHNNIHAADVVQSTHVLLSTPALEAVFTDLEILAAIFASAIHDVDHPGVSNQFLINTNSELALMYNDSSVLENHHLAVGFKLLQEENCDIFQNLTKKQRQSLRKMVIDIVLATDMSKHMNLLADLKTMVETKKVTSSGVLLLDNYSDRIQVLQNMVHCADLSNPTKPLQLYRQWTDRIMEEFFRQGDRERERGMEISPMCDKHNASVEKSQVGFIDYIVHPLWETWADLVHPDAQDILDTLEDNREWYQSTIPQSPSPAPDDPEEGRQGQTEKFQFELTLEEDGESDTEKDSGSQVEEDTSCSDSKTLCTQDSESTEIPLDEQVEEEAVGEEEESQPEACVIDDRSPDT
As to the kind of experiment: PDE assay, activation of full-length human PDE4D5 long form ([3H]cAMP radio-assay). The assay is classed as biochemical. The conditions noted are these: 30 μM test compound; mean % increase in counts over basal activity.
Source text: as §1, §2
(§8) For transient transfection of exogenous PDE4 long isoforms, HEK 293 cells were transfected with pcDNA3.1 or pDEST™ PDE4 expression vectors using Lipofectamine LTX/Plus reagent (Invitrogen) as outlined by the manufacturer.
(§9) Where stable cell lines were generated the clonal isolates were expanded to obtain cell lines that stably expressed the full-length human PDE4 long isoforms and the full length human PDE4B2 short isoform. These were called the HEK-PDE4D5, HEK-PDE4B1 and HEK-PDE4B2 cell lines, respectively.
as §3, §4, §5, §6, §7

The target of another assay is T3, PDE4B2 (Homo sapiens, UniProt Q07343).
T3 construct: the full length human PDE4B2 short isoform; made in house; cytosol fraction of the lysate by analogy to PDE4D5
T3 sequence (Q07343 1-564 isoform Q07343-2): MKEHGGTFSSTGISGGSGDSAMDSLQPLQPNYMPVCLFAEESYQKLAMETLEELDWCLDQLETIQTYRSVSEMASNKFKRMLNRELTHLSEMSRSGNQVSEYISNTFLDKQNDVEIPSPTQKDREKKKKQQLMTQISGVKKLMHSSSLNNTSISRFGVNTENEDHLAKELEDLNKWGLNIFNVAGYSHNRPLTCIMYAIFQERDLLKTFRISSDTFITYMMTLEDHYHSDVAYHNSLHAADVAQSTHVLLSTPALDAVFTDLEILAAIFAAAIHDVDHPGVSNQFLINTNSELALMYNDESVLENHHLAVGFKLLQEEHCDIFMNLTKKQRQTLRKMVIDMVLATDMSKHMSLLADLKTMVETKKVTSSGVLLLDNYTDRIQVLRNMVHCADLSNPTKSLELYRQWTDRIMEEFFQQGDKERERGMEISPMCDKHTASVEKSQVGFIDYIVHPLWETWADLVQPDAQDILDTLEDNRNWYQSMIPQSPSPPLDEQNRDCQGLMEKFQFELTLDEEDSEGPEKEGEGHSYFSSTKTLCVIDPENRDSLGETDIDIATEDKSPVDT
Description: PDE assay, activity of full-length human PDE4B2 short form ([3H]cAMP radio-assay). The assay is classed as biochemical. The conditions noted are these: 30 μM test compound; mean % increase in counts over basal activity.
Source text: as §1, §2, §8, §9, §3, §4, §5, §6, §7

T1 sequence (Q08493 1-680 isoform Q08493-3): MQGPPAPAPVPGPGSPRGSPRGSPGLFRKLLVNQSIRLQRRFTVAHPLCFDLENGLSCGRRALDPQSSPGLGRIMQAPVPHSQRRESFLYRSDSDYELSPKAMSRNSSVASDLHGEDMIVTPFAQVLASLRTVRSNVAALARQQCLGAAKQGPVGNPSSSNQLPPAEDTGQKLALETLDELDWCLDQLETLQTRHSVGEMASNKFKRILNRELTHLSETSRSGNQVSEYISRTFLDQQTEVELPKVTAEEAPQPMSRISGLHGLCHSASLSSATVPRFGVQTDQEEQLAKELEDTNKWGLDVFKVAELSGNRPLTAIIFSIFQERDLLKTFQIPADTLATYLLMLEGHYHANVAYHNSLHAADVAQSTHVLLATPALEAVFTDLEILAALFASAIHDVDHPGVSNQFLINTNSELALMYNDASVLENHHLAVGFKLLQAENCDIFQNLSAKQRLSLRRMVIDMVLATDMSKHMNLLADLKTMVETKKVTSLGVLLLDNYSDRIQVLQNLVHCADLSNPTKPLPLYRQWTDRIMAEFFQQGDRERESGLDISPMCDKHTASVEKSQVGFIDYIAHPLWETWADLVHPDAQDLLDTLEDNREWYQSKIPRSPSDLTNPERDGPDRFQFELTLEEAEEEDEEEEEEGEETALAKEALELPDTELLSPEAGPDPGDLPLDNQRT

`Cc1ncccc1-c1nc2ccc(C(=O)N[C@H]3CCCc4ccccc43)cc2s1` [Example 6, (S)-2-(2-methylpyridin-3-yl)-N-(1,2,3,4-tetrahydronaphthalen-1-yl)benzo[d]thiazole-6-carboxamide] showed an activation at 30 µM on PDE4C3 of 38%. The activity at 10 µM in the assay with m-IMCD3 cells is 7%.

`O=C(N[C@H]1CCOc2ccccc21)c1ccc2nc(-c3cccnc3)sc2c1` [Example 9, (S)-N-(chroman-4-yl)-2-(pyridin-3-yl)benzo[d]thiazole-6-carboxamide]: the activation at 30 µM at PDE4D5 came to 81%. In addition, the “% increase in PDE4B2 activity at 30 μM*” value at PDE4B2 is on record as 3%.

At PDE4C3, `Cc1cncc(-c2nc3ccc(C(=O)NCc4ccc(Cl)cc4)cc3s2)c1` [Example 31, N-(4-chlorobenzyl)-2-(5-methylpyridin-3-yl)benzo[d]thiazole-6-carboxamide] had an activation at 30 µM of 76%.

On to `Cc1cncc(-c2nc3ccc(C(=O)NCc4ccc(F)cc4)cc3s2)c1` [Example 32, N-(4-fluorobenzyl)-2-(5-methylpyridin-3-yl)benzo[d]thiazole-6-carboxamide], for which the activation at 30 µM on PDE4C3 is 99%. Also, the activity at 10 µM in the assay on m-IMCD3 cells stood at 18%.

In turn, `COc1ccc(CNC(=O)c2ccc3nc(-c4cncc(C)c4)sc3c2)cc1` [Example 33, N-(4-methoxybenzyl)-2-(5-methylpyridin-3-yl)benzo[d]thiazole-6-carboxamide] registered an activation at 30 µM on PDE4C3 of 82%.

On to `Cc1cncc(-c2nc3ccc(C(=O)NCc4cccc(F)c4)cc3s2)c1` [Example 35, N-(3-fluorobenzyl)-2-(5-methylpyridin-3-yl)benzo[d]thiazole-6-carboxamide], for which, at PDE4C3, the activation at 30 µM was determined as 36%.

In turn, `Cc1cncc(-c2nc3ccc(C(=O)N[C@H]4CCc5ccccc54)cc3s2)c1` [Example 37, (S)-N-(2,3-dihydro-1H-inden-1-yl)-2-(5-methylpyridin-3-yl)benzo[d]thiazole-6-carboxamide] displayed an activation at 30 µM at PDE4C3 of 57%.

For `Cc1cncc(-c2nc3ccc(C(=O)N[C@@H]4CCc5ccccc54)cc3s2)c1` [Example 38, (R)-N-(2,3-dihydro-1H-inden-1-yl)-2-(5-methylpyridin-3-yl)benzo[d]thiazole-6-carboxamide], the activation at 30 µM on PDE4C3 was 32%.

In the case of `Cc1cncc(-c2nc3ccc(C(=O)N[C@@H]4c5ccccc5C[C@@H]4O)cc3s2)c1` [Example 39, N-((1R,2S)-2-hydroxy-2,3-dihydro-1H-inden-1-yl)-2-(5-methylpyridin-3-yl)benzo[d]thiazole-6-carboxamide], on PDE4C3, the activation at 30 µM was 35%.

In the case of `Cc1cncc(-c2nc3ccc(C(=O)NC4CCCC4)cc3s2)c1` [Example 43, N-cyclopentyl-2-(5-methylpyridin-3-yl)benzo[d]thiazole-6-carboxamide], the activation at 30 µM at PDE4C3 stood at 68%.

For `Cc1cncc(-c2nc3ccc(C(=O)NC4CCOCC4)cc3s2)c1` [Example 46, 2-(5-methylpyridin-3-yl)-N-(tetrahydro-2H-pyran-4-yl)benzo[d]thiazole-6-carboxamide], at PDE4C3, the activation at 30 µM worked out at 71%.

Turning to `Cc1ccncc1-c1nc2ccc(C(=O)N[C@H]3CCCc4ccccc43)cc2s1` [Example 50, (S)-2-(4-methylpyridin-3-yl)-N-(1,2,3,4-tetrahydronaphthalen-1-yl)benzo[d]thiazole-6-carboxamide], the activation at 30 µM stood at 58% at PDE4C3 and 51% on PDE4D5. Moreover, in the assay with m-IMCD3 cells, the activity at 10 µM is 11%.

As to `Cc1ccncc1-c1nc2ccc(C(=O)N[C@H]3CCOc4ccccc43)cc2s1` [Example 51, (S)-N-(chroman-4-yl)-2-(4-methylpyridin-3-yl)benzo[d]thiazole-6-carboxamide], the activation at 30 µM was 112% at PDE4C3 and 87% at PDE4D5. In the assay on m-IMCD3 cells, the activity at 10 µM is -15%.

Consider `O=C(N[C@H]1CCOc2ccccc21)c1ccc2nc(-c3cncc(Cl)c3)sc2c1` [Example 53, (S)-2-(5-chloropyridin-3-yl)-N-(chroman-4-yl)benzo[d]thiazole-6-carboxamide], for which, at PDE4C3, the activation at 30 µM stood at 46%.

For the molecule `Cc1nn(C)c(C)c1-c1nc2ccc(C(=O)N[C@H]3CCOc4ccccc43)cc2s1` [Example 59, (S)-N-(chroman-4-yl)-2-(1,3,5-trimethyl-1H-pyrazol-4-yl)benzo[d]thiazoIe-6-carboxamide], the activity at 10 µM with m-IMCD3 cells turned out to be 20%. In addition, the activation at 30 µM on PDE4D5 is 77%.

Turning to `Cc1nn(C)cc1-c1nc2ccc(C(=O)N[C@H]3CCOc4ccccc43)cc2s1` [Example 61, (S)-N-(chroman-4-yl)-2-(1,3-dimethyl-1H-pyrazol-4-yl)benzo[d]thiazole-6-carboxamide], in the assay with m-IMCD3 cells, the activity at 10 µM amounted to 8%. On PDE4D5, this molecule had an activation at 30 µM of 124%.

For `O=C(N[C@H]1CCOc2ccccc21)c1ccc2nc(-c3cncc(C(F)F)c3)sc2c1` [Example 63, (S)-N-(chroman-4-yl)-2-(5-(difluoromethyl)pyridin-3-yl)benzo[d]thiazole-6-carboxamide], in the assay on m-IMCD3 cells, the activity at 10 µM stood at 16%. This molecule also showed an activation at 30 µM on PDE4D5 of 110%.

`CCN1CCC(c2nc3c(C)cc(C(=O)N[C@H]4CCOc5ccccc54)cc3s2)CC1` [Example 187, (S)-N-(chroman-4-yl)-2-(1-ethylpiperidin-4-yl)-4-methylbenzo[d]thiazole-6-carboxamide] showed an activation at 30 µM on PDE4D5 of 31%. For the same molecule, the “% increase in PDE4B2 activity at 30 μM*” value on PDE4B2 is recorded as 9%.

In the case of `CCN1CCN(c2nc3c(C)cc(C(=O)N[C@H]4CCOc5ccccc54)cc3s2)CC1` [Example 212, (S)-N-(chroman-4-yl)-2-(4-ethylpiperazin-1-yl)-4-methylbenzo[d]thiazole-6-carboxamide], the activation at 30 µM on PDE4D5 is 30%. At PDE4B2, the “% increase in PDE4B2 activity at 30 μM*” value is −3%.

`CCN1CCN(c2nc3cc(C)c(C(=O)N[C@H]4CCOc5ccccc54)cc3s2)CC1` [Example 216, (S)-N-(chroman-4-yl)-2-(4-ethylpiperazin-1-yl)-5-methylbenzo[d]thiazole-6-carboxamide]: the activity at 10 µM in the assay with m-IMCD3 cells was -5%. In addition, at PDE4D5, the activation at 30 µM came to 88%. Further, on PDE4B2, the “% increase in PDE4B2 activity at 30 μM*” value is −2%.

For the molecule `CCN1CCN(c2nc3ccc(C(=O)N[C@H]4CCOc5ccccc54)c(C)c3s2)CC1` [Example 220, (S)-N-(chroman-4-yl)-2-(4-ethylpiperazin-1-yl)-7-methylbenzo[d]thiazole-6-carboxamide], the activation at 30 µM at PDE4D5 amounted to 36%. Moreover, the “% increase in PDE4B2 activity at 30 μM*” value on PDE4B2 was 0%.
